Assay results taken from patent US12728125B2, “Methods for treating neutropenia” (X4 Pharmaceuticals, Inc., priority 2020, dated 2026).
Marks after values point to notes of the source that are not given here.

Legend:
[1] = tested on: circulating CFU-GM, BFU-E, CFU-GEMM progenitor cells and nucleated cells; assay: Progenitor/stem cell mobilization in mice after single subcutaneous injection; format: in vivo, C3H/HeJ mice
Method: A further study was conducted to determine whether X4P-001 mobilizes progenitor/stem cells in mice. All experiments were performed in […] mice. X4P-001 and AMD3 100/plerixafor were administered via single subcutaneous injection at the doses described below. The mobilization capacity of X4P-001 was assessed by the numbers of granulocyte-macrophage (CFU-GM), erythroid (BFU-E) and multipotential (CFU-GEMM) progenitor cells per mL of blood. The progenitors were stimulated to form colonies in vitro with the combination of 1 U/mL rhu EPO, 50 ng/mL rmu SLF, 5% vol/vol pokeweed mitogen mouse spleen cell conditioned medium (PWMSCM), and 0.1 mM hemin. Plates were scored 7 days after incubation at 37° C., […] and in a humidified chamber.
In the first experiment (data shown in Table 7), mice received a dose of 5 mg/kg- and the number of progenitors in the circulating blood was measured at various time points (0.25, 0.5, 1, 2, 6 and 24 hours).
An X4P-001 dose-response was performed by measurement of the number of circulating progenitors in the blood at 1 hour post-injection at various doses (1.5, 2.5, 5, 10 and 20 mg/kg).
A final experiment was performed to compare the progenitor cell mobilization capacity of X4P-001 and AMD3100/plerixafor.

[2] = tested on: hematology and coagulation; assay: 28-day GLP oral (capsule) toxicity study in the Beagle dog with 14-day recovery; format: in vivo
Method: A 28-Day GLP oral (capsule) toxicology study was conducted with […]-001 in the male and female beagle dog, and hematology effects were observed, with […]-001 administered twice-daily (at least 7 hours apart) by oral capsule for 28 days. A subset of treated animals was evaluated after a 14-day recovery period. [table] [table]

[3] = in vivo
Method: In certain embodiments, the dosage composition may be provided twice a day in divided dosage, approximately 12 hours apart. In other embodiments, the dosage composition may be provided once daily.

[4] = 400-mg single-dose subject (Stone, 2007); cited from earlier work
[5] = human, in vivo
Method: In some embodiments, the dose is selected to provide consistent clinically relevant elevations of both ANC and ALC, with low risk of significant adverse effects. Dosage of 400 mg per day BID for 3.5 days (healthy volunteers) (Stone 2007) and 200 mg BID for 8-10 days (healthy volunteers and HIV patients) were well-tolerated with no pattern of adverse events or clinically significant laboratory changes.

CXCR4 = CXCR4 (Homo sapiens, UniProt P61073); conditions: SDF-1α dose/response in calcium flux with increasing X4P-001; cited from earlier work
CXCR4, sequence (P61073 whole entry): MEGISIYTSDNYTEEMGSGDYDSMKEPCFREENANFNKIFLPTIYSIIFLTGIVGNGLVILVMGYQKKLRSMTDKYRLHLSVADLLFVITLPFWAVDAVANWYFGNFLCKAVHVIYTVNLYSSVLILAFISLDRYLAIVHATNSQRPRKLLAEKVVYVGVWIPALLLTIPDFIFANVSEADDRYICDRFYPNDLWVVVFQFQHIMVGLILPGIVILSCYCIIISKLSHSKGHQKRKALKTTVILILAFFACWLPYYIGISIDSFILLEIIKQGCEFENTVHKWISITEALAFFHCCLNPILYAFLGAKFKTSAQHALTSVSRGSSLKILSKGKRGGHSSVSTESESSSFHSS

[6] = tested on: WBC, neutrophil and lymphocyte counts; assay: Hematologic effects of a single oral dose in the male Beagle dog; format: in vivo
Method: Three fasted male Beagle dogs received a single dose of X4P-001 in aqueous solution by oral gavage at dose levels of 5, 15, and 35 mg/kg (1 dog per dose level) in a volume of 1 mL/kg. Blood samples (approximately 3 mL each) were obtained at multiple timepoints from each animal by direct venipuncture of the jugular vein and collected using Vacutainer® tubes containing K3EDTA as the anticoagulant. Blood samples were obtained at pre-dose, and 0.25, 0.5, 0.75, 1, 1.5, 2, 3, 4, 7, 12, and 24 hours post-dose. Blood samples were stored at ambient room temperature prior to automated differential analysis.
Body weights were determined prior to dosing on the day of test article administration.
Hematology parameters included the following: • White Blood Cell Count (WBC) • Differential white blood cell count (absolute and relative) • Neutrophil • Lymphocytes • Monocytes • Eosinophils • Basophils • Large Unstained Cells (LUC) • Hematocrit (HCT) • Hemoglobin (HGB) • Mean Corpuscular Hemoglobin (MCH) • Mean Corpuscular Hemoglobin Concentration (MCHC) • Mean Corpuscular Volume (MCV) • Platelet Count (PLT). • Red Blood Cell Count (RBC) Results

[7] = cited from earlier work; for Bone pain incidence, as high as: Ferguson 2015 (filgrastim), Kirshner 2012 (pegfilgrastim)
[8] = Table 9 comparison, 5 mg/kg s.c., @ - 60″ (1 h)
[9] = Table 7 time course, 5 mg/kg s.c., @ - 2′ (2 h)
[10] = Table 7 time course, 5 mg/kg s.c., @ - 6′ (6 h)
[11] = Table 7 time course, 5 mg/kg s.c., @ - 15″ ([…])
[12] = Table 7 time course, 5 mg/kg s.c., @ - 24′ (24 h)
[13] = Table 7 time course, 5 mg/kg s.c., @ - 30″ (0.5 h)
[14] = Table 7 time course, 5 mg/kg s.c., @ - 60″ (1 h)
[15] = Table 8 dose response, 1 hour post-injection, 1.5 mg/kg
[16] = Table 8 dose response, 1 hour post-injection, 5 mg/kg
[17] = Table 8 dose response, 1 hour post-injection, 10 mg/kg
[18] = Table 8 dose response, 1 hour post-injection, 20 mg/kg
[19] = Table 9 comparison, 5 mg/kg s.c., @ - 2′ (2 h)
[20] = Table 9 comparison, 5 mg/kg s.c., @ - 15″ ([…])
[21] = Table 9 comparison, 5 mg/kg s.c., @ - 30″ (0.5 h)
[22] = females, 10 mg/kg/d, Day 28, p < 0.05
[23] = females, 30 mg/kg/d, Day 28, p < 0.05
[24] = females, 100 mg/kg/d, Day 28, p < 0.05
[25] = males, 100 mg/kg/d, Day 28, p < 0.05

In the case of c1cc(CN2CCCNCCNCCCNCC2)ccc1CN1CCCNCCNCCCNCC1 [AMD3100, plerixafor, reference compound], the “BFU (BFU-E), Mean” value [1, 8] is reported as 207.7 per mL of blood, the “GEMM (CFU-GEMM), Mean” value [1, 8] is reported as 138.5 per mL of blood and the “GM (CFU-GM), Mean” value [1, 8] is reported as 1950.3 per mL of blood.

In the case of NCCCCN(Cc1nc2ccccc2[nH]1)[C@H]1CCCc2cccnc21 [Mavorixafor, mavorixafor], the “BFU (BFU-E), Mean” value [1, 9] is reported as 165.3 per mL of blood, the “GEMM (CFU-GEMM), Mean” value [1, 9] is reported as 68.9 per mL of blood and the “GM (CFU-GM), Mean” value [1, 9] is reported as 897.5 per mL of blood. The “BFU (BFU-E), Mean” value [1, 10] was 99.9 per mL of blood, the “GEMM (CFU-GEMM), Mean” value [1, 10] was 37.6 per mL of blood and the “GM (CFU-GM), Mean” value [1, 10] was 387.5 per mL of blood. For the same molecule, the “BFU (BFU-E), Mean” value [1, 11] was 148.8 per mL of blood, the “GEMM (CFU-GEMM), Mean” value [1, 11] was 65.6 per mL of blood and the “GM (CFU-GM), Mean” value [1, 11] was 785.1 per mL of blood. For the same molecule, the “BFU (BFU-E), Mean” value [1, 12] was 84.6 per mL of blood, the “GEMM (CFU-GEMM), Mean” value [1, 12] was 37.7 per mL of blood and the “GM (CFU-GM), Mean” value [1, 12] was 386.3 per mL of blood. The “BFU (BFU-E), Mean” value [1, 13] was 230.4 per mL of blood, the “GEMM (CFU-GEMM), Mean” value [1, 13] was 99.6 per mL of blood and the “GM (CFU-GM), Mean” value [1, 13] was 1273.8 per mL of blood. For the same molecule, the “BFU (BFU-E), Mean” value [1, 14] was 235.1 per mL of blood, the “GEMM (CFU-GEMM), Mean” value [1, 14] was 103.1 per mL of blood and the “GM (CFU-GM), Mean” value [1, 14] was 866.0 per mL of blood. For the same molecule, the “BFU (BFU-E), Mean” value [1, 15] was 143.8 per mL of blood, the “GEMM (CFU-GEMM), Mean” value [1, 15] was 53.3 per mL of blood and the “GM (CFU-GM), Mean” value [1, 15] was 428.0 per mL of blood. For the same molecule, the “BFU (BFU-E), Mean” value [1, 16] was 181.6 per mL of blood, the “GEMM (CFU-GEMM), Mean” value [1, 16] was 141.0 per mL of blood and the “GM (CFU-GM), Mean” value [1, 16] was 1119.8 per mL of blood. The “BFU (BFU-E), Mean” value [1, 17] was 268.1 per mL of blood, the “GEMM (CFU-GEMM), Mean” value [1, 17] was 224.4 per mL of blood and the “GM (CFU-GM), Mean” value [1, 17] was 1444.2 per mL of blood. The “BFU (BFU-E), Mean” value [1, 18] was 261.4 per mL of blood, the “GEMM (CFU-GEMM), Mean” value [1, 18] was 145.0 per mL of blood and the “GM (CFU-GM), Mean” value [1, 18] was 1314.2 per mL of blood. For the same molecule, the “BFU (BFU-E), Mean” value [1, 19] was 108.5 per mL of blood, the “GEMM (CFU-GEMM), Mean” value [1, 19] was 62.4 per mL of blood and the “GM (CFU-GM), Mean” value [1, 19] was 619.6 per mL of blood. For the same molecule, the “BFU (BFU-E), Mean” value [1, 20] was 188.9 per mL of blood, the “GEMM (CFU-GEMM), Mean” value [1, 20] was 93.8 per mL of blood and the “GM (CFU-GM), Mean” value [1, 20] was 588.3 per mL of blood. For the same molecule, the “BFU (BFU-E), Mean” value [1, 21] was 151.9 per mL of blood, the “GEMM (CFU-GEMM), Mean” value [1, 21] was 79.0 per mL of blood and the “GM (CFU-GM), Mean” value [1, 21] was 705.9 per mL of blood. The “BFU (BFU-E), Mean” value [1, 8] was 144.3 per mL of blood, the “GEMM (CFU-GEMM), Mean” value [1, 8] was 102.2 per mL of blood and the “GM (CFU-GM), Mean” value [1, 8] was 761.4 per mL of blood. The “Hematology results after the 14-day recovery period” value ([2]; 100 mg/kg dose group) was “returned to within normal levels”, the “Lymphocytes (abs), increase” value ([2]; females, 10 mg/kg/d, Day 28) was “F incr 1.4×” and the “Monocytes (abs), increase” value [2, 22] was “F incr 1.6×†”. The “Neutrophils (abs), increase” value [2, 22] was “F incr 1.9×†”, the “Lymphocytes (abs), increase” value [2, 23] was “F incr 1.6×†” and the “Monocytes (abs), increase” value [2, 23] was “F incr 1.9×†”. For the same molecule, the “Neutrophils (abs), increase” value [2, 23] was “F incr 2.3×†”, the “Lymphocytes (abs), increase” value [2, 24] was “F incr 1.4×†” and the “Monocytes (abs), increase” value [2, 24] was “F incr 2.4×†”. The “Neutrophils (abs), increase” value [2, 24] was “F incr 2.8×†”, the “Reticulocytes, decrease” value [2, 24] was “F decr 0.24†” and the “Lymphocytes (abs), increase” value ([2]; males, 10 mg/kg/d, Day 28) was “M incr 1.3×;”. For the same molecule, the “Monocytes (abs), increase” value ([2]; males, 10 mg/kg/d, Day 28) was “M incr 1.2×;”, the “Neutrophils (abs), increase” value ([2]; males, 10 mg/kg/d, Day 28) was “M incr 1.2×;” and the “Lymphocytes (abs), increase” value ([2]; males, 30 mg/kg/d, Day 28) was “M incr 1.6×;”. The “Monocytes (abs), increase” value ([2]; males, 30 mg/kg/d, Day 28) was “M incr 1.3×;”, the “Neutrophils (abs), increase” value ([2]; males, 30 mg/kg/d, Day 28) was “M incr 1.2×;” and the “Neutrophils (abs), increase” value ([2]; males, 100 mg/kg/d, Day 28) was “M incr 1.8×;”. For the same molecule, the “Lymphocytes (abs), increase” value [2, 25] was “M incr 2.3×†;”, the “Monocytes (abs), increase” value [2, 25] was “M incr 1.9×†;” and the Terminal half-life [3] was “approximately 14.5 hrs”. The “Increase in circulating white blood cells (leukocytosis) above baseline” value [4] was 2.9 fold, the “Overall tolerability in clinical studies” value [5] was “generally well tolerated” and the “Mode of CXCR4 inhibition” value (CXCR4) was “allosteric inhibitor”. For the same molecule, the “Time at which increases typically peaked” value ([6]; 5, 15, 35 mg/kg oral) was 12 h and the Other hematological effects ([6]; single oral dose 5, 15, 35 mg/kg) was “No other hematological effects were observed”.

B1: pegfilgrastim (protein, chains of the INN, looked up)
chain: TPLGPASSLPQSFLLKCLEQVRKIQGDGAALQEKLCATYKLCHPEELVLLGHSLGIPWAPLSSCPSQALQLAGCLSQLHSGLFLYQGLLQALEGISPELGPTLDTLQLDVADFATTIWQQMEELGMAPALQPTQGAMPAFASAFQRRAGGVLVASHLQSFLEVSYRVLRHLAQP
modifications: PEG conjugate, N-terminal methionine
notes: pegylated G-CSF
For B1, the “Bone pain incidence, as high as” value [7] is listed as 59% and the “Severe bone pain incidence” value ([7]; Kirshner et al. 2012) is listed as 24%.

B2: filgrastim (protein, chains of the INN, looked up)
chain: MTPLGPASSLPQSFLLKCLEQVRKIQGDGAALQEKLCATYKLCHPEELVLLGHSLGIPWAPLSSCPSQALQLAGCLSQLHSGLFLYQGLLQALEGISPELGPTLDTLQLDVADFATTIWQQMEELGMAPALQPTQGAMPAFASAFQRRAGGVLVASHLQSFLEVSYRVLRHLAQP
modifications: N-terminal methionine, recombinant
notes: granulocyte colony-stimulating factor, standard of care for severe chronic neutropenia
In the case of B2, the “Bone pain incidence, as high as” value [7] is given as 66% and the “Bone pain incidence reported on label” value ([7]; label) is given as 24%.
